Data taken from PubChem BioAssay AID1919004 (Molecular Pharmacology Branch, DTP, NCI, 2023).

Test system: 883617-216-R-J1-PDC complex spheroids, growth, % test/control
Test: Anticancer human tumor 883617-216-R-J1-PDC patient-derived bladder carcinoma cell line growth inhibition [AhR]
Conditions: for IC50: curve of first compound; for viability, T/C: stronger effect = lower value
Source text: Multicellular complex tumor spheroid response to aryl hydrocarbon receptor antagonists in combination with a variety of drugs and investigational agents in selected tumor cell lines
The current study was undertaken to assess response to aryl hydrocarbon receptor antagonists in combination with standard-of-care drugs and investigational agents in solid tumor complex spheroid models. Complex spheroids include a stromal component modeled by human endothelial cells (HUVEC) and fibroblasts modeled by human mesenchymal stem cells (MSCs). The concentration ranges selected for each drug and investigational agent were based upon clinically achievable concentrations if the clinical Cmax of the agent was known.
Compounds. The drugs and investigational agents: BAY 2416964 (NSC825713), GNF351 (NSC835774), CH-223191 (NSC835775), CPI-455 (NSC825282), aza-TdCyd (NSC777586), decitabine (NSC127716), belinostat (NSC758774), entinostat (NSC756642), pevonedistat (NSC761192), tazemetostat (NSC777109), talazoparib (NSC765396), olaparib (NSC753686), selinexor (NSC780203), nedisertib (M3814, NSC802822), bortezomib (NSC756655), venetoclax (NSC766270), doxorubicin (NSC123127), elimusertib (BAY189344, NSC800525), ceralasertib (AZD6738, NSC777638), TAK-243 (NSC785004), alisertib (NSC759677), etoposide (NSC141540), topotecan (NSC609699), eribulin (NSC707389), gemcitabine (NSC613327), carboplatin (NSC241240), cisplatin (NSC119875), and SN-38 (NSC673596) were obtained from the National Cancer Institute (NCI) Developmental Therapeutics Program Chemical Repository (32). The FDA-approved anticancer drug set is available from the Developmental Therapeutics Program at https://dtp.cancer.gov/organization/dscb/obtaining/available plates.htm. […] The stock solutions were prepared in dimethyl sulfoxide (DMSO, Sigma-Aldrich, St. Louis, MO, cat. D2650), except for the platinum compounds which were prepared in saline (Quality Biological, Gaithersburg, MD, cat. 114-055-101), at 800-fold the tested concentration and stored at -70 degrees C prior to their use. All drugs and investigational agents were tested over a range starting from a high concentration at or near the clinical Cmax and decreasing in half-log increments. If the clinical Cmax for an agent had not been determined, the highest concentration tested was 10 microM (Table 1).
Cell Culture. All cells were maintained in an incubator at 37 degrees C and 5% CO2 with 95% humidity. The PDC lines were cultured according to standard operating procedures established by the NCI PDMR (https://pdmr.cancer.gov). Briefly, all PDCs were thawed and cultured in Matrigel-coated flasks prepared with a working solution of 1X Ham's F-12 nutrient mix, without supplementation (Invitrogen, Waltham, MA, cat. 11765054), 100 U/mL penicillin-streptomycin (Invitrogen, cat. 15140122), and 2.5% Matrigel (Corning Inc., Corning, NY, cat. 354248) for the first three passages. All PDCs were cultured in complete DMEM/F-12 media containing advanced DMEM/F-12 (Invitrogen, cat. 12634028), 4.9% defined fetal bovine serum, heat inactivated (HyClone Laboratories Inc., Logan, UT, cat. SH30070.03HI), 389 ng/mL hydrocortisone (Sigma-Aldrich, cat. H4001), 9.7 ng/mL human EGF recombinant protein (Invitrogen, cat. PHG0313), 23.4 microg/mL adenine (Sigma-Aldrich, cat. A2786), 97.3 U/mL penicillin-streptomycin (Invitrogen, cat. 15140122), 1.9 mM L-glutamine (Invitrogen, cat. 25030081), and 9.7 microM Y-27632 dihydrochloride (Tocris Bioscience, Bristol, United Kingdom, cat. 1254). The PDCs were cultured in complete DMEM/F12 media without 10 microM Y-27632 dihydrochloride for at least two passages prior to the screen. The established cell lines NCI-H1341 and […] were cultured in DMEM/F-12, HEPES (Invitrogen, cat. 11330032), 5% defined fetal bovine serum (HyClone Laboratories Inc., cat. SH30070.03), ITS premix universal culture supplement [insulin (5 microg/mL), transferrin (5 microg/mL), and selenious acid (5 ng/mL)] […]
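Further: exposure lasted 7 days after dosing on day 3 of spheroid growth.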

For `Nc1ccccc1NC(=O)c1ccc(CNC(=O)OCc2cccnc2)cc1` + Cc1cncc(-c2nc(NCCc3c[nH]c4ccccc34)c3ncn(C(C)C)c3n2)c1, the IC50 (second compound 0.1 µM) was 607 nM, the IC50 (second compound 0.316 µM) was 664 nM and the IC50 (second compound 1 µM) was 834 nM. The IC50 (second compound 3.16 µM) was 1040 nM, the IC50 (second compound 10 µM) was under 31.6 nM and the viability, T/C (second compound 0.1 µM, first compound 0.0316 µM) was 81.2%. The viability, T/C (second compound 0.1 µM, first compound 0.1 µM) was 78.8%, the viability, T/C (second compound 0.1 µM, first compound 0.316 µM) was 66.7% and the viability, T/C (second compound 0.1 µM, first compound 1 µM) was 37%. For the same compound, the viability, T/C (second compound 0.1 µM, first compound 3.16 µM) was 11.3%, the viability, T/C (second compound 0.1 µM, first compound 10 µM) was 1.5% and the viability, T/C (second compound 0.316 µM, first compound 0.0316 µM) was 88.1%. The viability, T/C (second compound 0.316 µM, first compound 0.1 µM) was 79.7%, the viability, T/C (second compound 0.316 µM, first compound 0.316 µM) was 68.5% and the viability, T/C (second compound 0.316 µM, first compound 1 µM) was 40.1%. For the same compound, the viability, T/C (second compound 0.316 µM, first compound 3.16 µM) was 14.4%, the viability, T/C (second compound 0.316 µM, first compound 10 µM) was 0.94% and the viability, T/C (second compound 1 µM, first compound 0.0316 µM) was 96.6%. It also gave a viability, T/C (second compound 1 µM, first compound 0.1 µM) of 93.7%, a viability, T/C (second compound 1 µM, first compound 0.316 µM) of 77.8% and a viability, T/C (second compound 1 µM, first compound 1 µM) of 44.6%. For the same compound, the viability, T/C (second compound 1 µM, first compound 3.16 µM) was 14.1%, the viability, T/C (second compound 1 µM, first compound 10 µM) was 0.83% and the viability, T/C (second compound 3.16 µM, first compound 0.0316 µM) was 109%. For the same compound, the viability, T/C (second compound 3.16 µM, first compound 0.1 µM) was 105%, the viability, T/C (second compound 3.16 µM, first compound 0.316 µM) was 83.2% and the viability, T/C (second compound 3.16 µM, first compound 1 µM) was 51.1%. The viability, T/C (second compound 3.16 µM, first compound 3.16 µM) was 18.9%, the viability, T/C (second compound 3.16 µM, first compound 10 µM) was 0.37% and the viability, T/C (second compound 10 µM, first compound 0.0316 µM) was 41.6%. It also gave a viability, T/C (second compound 10 µM, first compound 0.1 µM) of 42.5%, a viability, T/C (second compound 10 µM, first compound 0.316 µM) of 35.8% and a viability, T/C (second compound 10 µM, first compound 1 µM) of 21.3%. The viability, T/C (second compound 10 µM, first compound 3.16 µM) was 11.1% and the viability, T/C (second compound 10 µM, first compound 10 µM) was 0.35%.
